According to patent US8557995B2, “Solid dispersions containing kinase inhibitors” (AbbVie Inc., priority 2010, dated 2013):

Assay: solubility in water
Type: physicochemical
Conditions: pH 7.4, aqueous buffer
Excerpt: Examples of such active ingredients are, for example, Biopharmaceutics Classification System (BCS) Class IV drug substances that are characterized by low solubility and low permeability (see “Waiver of in vivo bioavailability and bioequivalence studies for immediate-release solid oral dosage forms based on a biopharmaceutics classification system”, U.S. Department of Health and Human Services, Food and Drug Administration, Center for Drug Evaluation and Research (CDER), August 2000). It will be recognized that aqueous solubility of many compounds is pH-dependent; in the case of such compounds the solubility of interest herein is at a physiologically relevant pH, for example a pH of about 1 to about 8.

Nc1ncc(-c2cnn(CCO)c2)c2scc(-c3ccc(NC(=O)Nc4cccc(F)c4)cc3)c12 [N-(4-{4-amino-7-[1-(2-hydroxyethyl)-1H-pyrazol-4-yl]thieno[3,2-c]pyridin-3-yl}phenyl)-N′-(3-fluorophenyl)urea]
solubility: < 0.03 µg/mL
